Target: Prothrombin (Homo sapiens, UniProt P00734)
Experiment: Compound was evaluated for the inhibitory activity against thrombin.

Row | Compound | Ki [nM]
1 | NCCCC[C@H](NC(=O)[C@@H]1CCCN1C(=O)CCc1cccc(C(F)(F)F)c1)B(O)O | 0.78
2 | CC(C)(C)OC(=O)N1C[C@H](C(=O)N2CCC[C@H]2C(=O)N[C@@H](CCCCN)B2O[C@@H]3C[C@@H]4C[C@@H](C4(C)C)[C@]3(C)O2)[C@@H](c2cccc(C(F)(F)F)c2)C1 | 3.1
3 | NCCCC[C@H](NC(=O)[C@@H]1CCCN1C(=O)CCc1ccccc1)B(O)O | 0.8
4 | CC1(C)[C@@H]2C[C@H]3OB([C@H](CCCCN)NC(=O)[C@@H]4CCCN4C(=O)[C@H]4CNC[C@@H]4c4cccc(C(F)(F)F)c4)O[C@@]3(C)[C@H]1C2 | 5.6
5 | CC12OB(C(CCCCN)NC(=O)[C@@H]3CCCN3C(=O)[C@H]3CCCC[C@@H]3c3ccccc3)OC1C[C@@H]1C[C@H]2C1(C)C (stereo partly drawn) | 30

These reach a lower Ki. Values come first.

Row | Ki [nM] | Compound
6 | 0.5 | CC1(C)[C@@H]2C[C@H]3OB([C@H](CCCCN)NC(=O)[C@@H]4CCCN4C(=O)[C@@H]4CNC[C@H]4c4cccc(C(F)(F)F)c4)O[C@@]3(C)[C@H]1C2
7 | 0.32 | CC(C)(C)OC(=O)N1C[C@@H](C(=O)N2CCC[C@H]2C(=O)N[C@@H](CCCCN)B2O[C@@H]3C[C@@H]4C[C@@H](C4(C)C)[C@]3(C)O2)[C@H](c2cccc(C(F)(F)F)c2)C1
8 | 0.46 | NCCC[C@H](NC(=O)[C@@H]1CCCN1C(=O)[C@@H]1CCCC[C@H]1c1ccccc1)B(O)O
